# Assay results: patent US4242504A, “3"-Acylated macrolide antibiotics” (Toyo Jozo Kabushiki Kaisha, priority 1978, dated 1980)
# Columns and labels:
# [1] = test system: Staph.aureus 6538P; assay: Minimum Inhibitory Concentration (MIC), broth dilution method; assay type: cell-based; conditions: Staphylococcus aureus, inoculum size 10^6 /ml
# [2] = test system: Staph.aureus MS353 C36; assay: as above; assay type: cell-based; conditions: Staphylococcus aureus, MS353C36, Staph.aureus MS353 C36, inoculum size 10^6 /ml
# Description: (§1) Minimum Inhibitory Concentration (MIC) μg/ml
# (§2) clinical isolates (macrolide resistant Agroup strains) inoculum size
# (§3) 10^6 /ml, broth dilution method.
# [3] = test system: Staph.aureus MS353; assay: as above; assay type: cell-based; conditions: Staphylococcus aureus, inoculum size 10^6 /ml
# Description: as §1, §2, §3
# [4] = test system: Strept.faecalis 1501; assay: as above; assay type: cell-based; conditions: for MIC: Enterococcus faecalis, 1501, Strept.faecalis 1501, inoculum size 10^6 /ml
# [5] = test system: Staph. aureus 0116; assay: as above; assay type: cell-based; conditions: inoculum size 10^6 /ml; for MIC: Staphylococcus aureus, 0116, Staph. aureus 0116, macrolide resistant clinical isolate (A group)
# Description: as §1
# (§4) *Erythromycin, oleandomycin, 16membered macrolide resistant strains of
# as §2, §3
# [6] = test system: Staph.aureus 0119; assay: as above; assay type: cell-based; conditions: inoculum size 10^6 /ml; for MIC: Staphylococcus aureus, 0119, Staph.aureus 0119, macrolide resistant clinical isolate (A group)
# Description: as §1, §4, §2, §3
# [7] = test system: Staph.aureus MS 353AO; assay: as above; assay type: cell-based; conditions: macrolide resistant clinical isolate (A group), inoculum size 10^6 /ml; for MIC: Staphylococcus aureus, MS353AO
# Description: as §1, §4, §2, §3
# [8] = test system: Strept.pyogenes 1022; assay: as above; assay type: cell-based; conditions: inoculum size 10^6 /ml; for MIC: Streptococcus pyogenes, 1022, Strept.pyogenes 1022, macrolide resistant clinical isolate (A group)
# Description: as §1, §4, §2, §3
# [9] = Potency as compared with standard leucomycin
smiles,measurement,setting,value
"CCCC(=O)OC1C(C)OC(OC2C(C)OC(OC3C(CC=O)CC(C)C(O)C=CC=CCC(C)OC(=O)CC(OC(C)=O)C3OC)C(O)C2N(C)C)CC1(C)OC(C)=O (stereo not shown) [3,3""-diacetyl LM-A5, 3,3""-diacetylleucomycin A5]",MIC,[1],1.6 µg/mL
same,MIC,[2],0.8 µg/mL
same,MIC,[3],1.6 µg/mL
same,MIC,[4],1.6 µg/mL
same,MIC,[5],50 µg/mL
same,MIC,[6],> 100 µg/mL
same,MIC,[7],> 100 µg/mL
same,MIC,[8],1.6 µg/mL
"CCCC(=O)OC1C(C)OC(OC2C(C)OC(OC3C(CC=O)CC(C)C(O)C=CC=CCC(C)OC(=O)CC(O)C3OC)C(O)C2N(C)C)CC1(C)OC(=O)CCC (stereo not shown) [3""butylyl LM-A5, 3""-butylyl leucomycin A5]",MIC,[1],0.8 µg/mL
same,MIC,[2],0.4 µg/mL
same,MIC,[3],1.6 µg/mL
same,MIC,[4],0.8 µg/mL
same,MIC,[5],50 µg/mL
same,MIC,[6],100 µg/mL
same,MIC,[7],> 100 µg/mL
same,MIC,[8],0.8 µg/mL
"COC1C(OC(C)=O)CC(=O)OC(C)CC=CC=CC(O)C(C)CC(CC=O)C1OC1OC(C)C(OC2CC(C)(O)C(OC(=O)CC(C)C)C(C)O2)C(N(C)C)C1O (stereo not shown) [LM-A3, Leucomycin A3, reference compound]",MIC,[1],3.1 µg/mL
same,MIC,[2],1.6 µg/mL
same,MIC,[3],3.1 µg/mL
same,MIC,[4],3.1 µg/mL
same,MIC,[5],> 100 µg/mL
same,MIC,[6],> 100 µg/mL
same,MIC,[7],> 100 µg/mL
same,MIC,[8],> 100 µg/mL
"CCCC(=O)OC1C(C)OC(OC2C(C)OC(OC3C(CC=O)CC(C)C(O)C=CC=CCC(C)OC(=O)CC(O)C3OC)C(O)C2N(C)C)CC1(C)O (stereo not shown) [LM-A5, Leucomycin A5, reference compound]",MIC,[1],1.6 µg/mL
same,MIC,[2],1.6 µg/mL
same,MIC,[3],1.6 µg/mL
same,MIC,[4],1.6 µg/mL
same,MIC,[5],> 100 µg/mL
same,MIC,[6],> 100 µg/mL
same,MIC,[7],> 100 µg/mL
same,MIC,[8],> 100 µg/mL
"CCCC(=O)OC1C(C)OC(OC2C(C)OC(OC3C(CC=O)CC(C)C(O)C=CC=CCC(C)OC(=O)CC(O)C3OC)C(O)C2N(C)C)CC1(C)OC(C)=O (stereo not shown) [3""-acetyl LM-A5, 3""-acetyl leucomycin A5]",MIC,[1],1.6 µg/mL
same,MIC,[3],1.6 µg/mL
same,MIC,[4],0.8 µg/mL
same,Minimum Inhibitory Concentration (MIC),"[4]; Strept.faecalis 1501, inoculum size 10^6 /ml",1.6 µg/mL
same,Minimum Inhibitory Concentration (MIC),"[5]; Staph. aureus 0116, macrolide resistant clinical isolate (A group)",12.5 µg/mL
same,MIC,[5],6.3 µg/mL
same,Minimum Inhibitory Concentration (MIC),"[6]; Staph.aureus 0119, macrolide resistant clinical isolate (A group)",> 100 µg/mL
same,MIC,[6],100 µg/mL
same,MIC,[7],> 100 µg/mL
same,Minimum Inhibitory Concentration (MIC),[7],100 µg/mL
same,Minimum Inhibitory Concentration (MIC),"[8]; Strept.pyogenes 1022, macrolide resistant clinical isolate (A group)",0.8 µg/mL
same,MIC,[8],0.4 µg/mL
same,Potency,[9],2850 µg/mg
"CCCC(=O)OC1C(C)OC(OC2C(C)OC(OC3C(CC=O)CC(C)C(O)C=CC=CCC(C)OC(=O)CC(O)C3OC)C(O)C2N(C)C)CC1(C)OC(=O)CC (stereo not shown) [3""-propionyl LM-A5, 3""-propionyl leucomycin A5]",MIC,[1],0.8 µg/mL
same,MIC,[2],0.8 µg/mL
same,MIC,[3],1.6 µg/mL
same,MIC,[4],0.8 µg/mL
same,MIC,[5],12.5 µg/mL
same,MIC,[6],> 100 µg/mL
same,MIC,[7],> 100 µg/mL
same,MIC,[8],0.4 µg/mL
same,Potency,[9],2850 µg/mg
"CCCC(=O)OC1C(C)OC(OC2C(C)OC(OC3C(CC=O)CC(C)C(OC(C)=O)C=CC=CCC(C)OC(=O)CC(O)C3OC)C(O)C2N(C)C)CC1(C)OC(C)=O (stereo not shown) [9,3""-diacetyl LM-A5, 9,3""-diacetyl leucomycin A5]",MIC,[1],0.8 µg/mL
same,MIC,[2],0.8 µg/mL
same,MIC,[3],1.6 µg/mL
same,MIC,[4],1.6 µg/mL
same,MIC,[5],12.5 µg/mL
same,MIC,[6],100 µg/mL
same,MIC,[7],> 100 µg/mL
same,MIC,[8],0.4 µg/mL
"CCCC(=O)OC1(C)CC(OC2C(C)OC(OC3C(CC=O)CC(C)C(O)C=CC=CCC(C)OC(=O)CC(O)C3OC)C(O)C2N(C)C)OC(C)C1OC(C)=O (stereo not shown) [4""-acetyl-3""-butylyl LM-A5, 4""-acetyl-3""-butylyl leucomycin V]",MIC,[1],1.6 µg/mL
same,MIC,[2],0.8 µg/mL
same,MIC,[3],1.6 µg/mL
same,MIC,[4],0.8 µg/mL
same,MIC,[5],50 µg/mL
same,MIC,[6],> 100 µg/mL
same,MIC,[7],25 µg/mL
same,MIC,[8],6.3 µg/mL
